Measured values as given in ChEMBL document CHEMBL1201862, “PubChem BioAssay data set” (2004).
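Results reflect a 48-hour exposure of cells in 96-well plates to compound at five concentrations. At the GI50, growth is halved.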 Active and inactive are the calls of the source. Rule as the data show it: active = GI50 up to about 1.1 µM and inactive = higher.

Tests used:
Test in all cases: inhibition of tumour cell growth, NCI panel, 48 h
[1] = test system: ACHN
[2] = test system: OVCAR-5
[3] = test system: NCI-H522
[4] = test system: KM12
[5] = test system: A549
[6] = test system: LOX IMVI
[7] = test system: M14
[8] = test system: K562
[9] = test system: HCT-15
[10] = test system: 786-0
[11] = test system: UACC-62
[12] = test system: HL-60
[13] = test system: SK-OV-3
[14] = test system: RXF 393
[15] = test system: MCF7
[16] = test system: COLO 205
[17] = test system: IGROV-1
[18] = test system: MDA-N
[19] = test system: HOP-62
[20] = test system: SN12C

SMILES	GI50 [1]	GI50 [2]	GI50 [3]	GI50 [4]	GI50 [5]	GI50 [6]	GI50 [7]	GI50 [8]	GI50 [9] [µM]	GI50 [10]	GI50 [11]	GI50 [12]	GI50 [13]	GI50 [14]	GI50 [15]	GI50 [16]	GI50 [17]	GI50 [18]	GI50 [19]	GI50 [20]
Cc1cc(Cl)ccc1OCC(=O)Oc1c(Cl)c(Cl)c(Cl)c(Cl)c1Cl	28.2 µM (inactive)	24.4 µM (inactive)	17.9 µM (inactive)	23.2 µM (inactive)	25.6 µM (inactive)	22.5 µM (inactive)	26.6 µM (inactive)	35.2 µM (inactive)	27	29.4 µM (inactive)	19 µM (inactive)	> 100 µM (inactive)	27.9 µM (inactive)	18.7 µM (inactive)	26.8 µM (inactive)	27.8 µM (inactive)	17.4 µM (inactive)	26.2 µM (inactive)	21.4 µM (inactive)	25.4 µM (inactive)
COc1cccc2c1C(=O)C(=O)c1c-2oc(=O)c2cc(C)cc(OC)c12	> 75 µM (inactive)	> 75 µM (inactive)	14.1 µM (inactive)	21.1 µM (inactive)	> 75 µM (inactive)	13.6 µM (inactive)	25.3 µM (inactive)	22.3 µM (inactive)	13.4	26.2 µM (inactive)	31 µM (inactive)	25.7 µM (inactive)	58.5 µM (inactive)	19.1 µM (inactive)	23.7 µM (inactive)	67 µM (inactive)	16.7 µM (inactive)	17.5 µM (inactive)	15.9 µM (inactive)	53.8 µM (inactive)
O=CCCCCCOCc1ccccc1	36.9 µM (inactive)	> 100 µM (inactive)	20.7 µM (inactive)	54.3 µM (inactive)	43.6 µM (inactive)	18.3 µM (inactive)	> 100 µM (inactive)	9.98 µM (inactive)	37.4	23.8 µM (inactive)	> 58.1 µM (inactive)	11.6 µM (inactive)	> 100 µM (inactive)	> 100 µM (inactive)	54.8 µM (inactive)	> 100 µM (inactive)	40.7 µM (inactive)	> 100 µM (inactive)	29.4 µM (inactive)	17.7 µM (inactive)
c1ccc(-c2nnc(SCc3c[nH]c4ccccc34)n2-c2ccccc2)cc1	26.6 µM (inactive)	> 100 µM (inactive)	25.9 µM (inactive)	65.3 µM (inactive)	34.4 µM (inactive)	34.9 µM (inactive)	78.9 µM (inactive)	47.5 µM (inactive)	45	31.8 µM (inactive)	21.5 µM (inactive)	> 100 µM (inactive)	32.4 µM (inactive)	16.6 µM (inactive)	42.3 µM (inactive)	> 100 µM (inactive)	27.2 µM (inactive)	78 µM (inactive)	19 µM (inactive)	68.4 µM (inactive)
c1ccc(CSC2(SCc3ccccc3)CCCCC2)cc1	> 10 µM (inactive)		> 10 µM (inactive)	> 10 µM (inactive)	> 10 µM (inactive)	> 10 µM (inactive)	> 10 µM (inactive)	> 10 µM (inactive)	> 10	> 10 µM (inactive)	> 10 µM (inactive)	> 10 µM (inactive)	> 10 µM (inactive)	> 10 µM (inactive)	> 10 µM (inactive)	> 10 µM (inactive)	> 10 µM (inactive)	> 10 µM (inactive)	> 10 µM (inactive)	> 10 µM (inactive)
Nc1nc(Cl)cc(NCC2(CO)CCC(O)C2)n1 (stereo unspecified)	> 100 µM (inactive)	> 100 µM (inactive)	> 100 µM (inactive)	> 100 µM (inactive)	> 100 µM (inactive)	> 100 µM (inactive)	> 100 µM (inactive)	> 100 µM (inactive)	> 100	> 100 µM (inactive)	> 100 µM (inactive)	> 100 µM (inactive)	> 100 µM (inactive)	> 100 µM (inactive)	> 100 µM (inactive)	> 100 µM (inactive)	> 100 µM (inactive)	> 100 µM (inactive)	> 100 µM (inactive)	> 100 µM (inactive)
CCCCn1c(C)c(C(=O)OCC)s/c1=N/Nc1nc2ccccc2nc1-c1ccccc1	78.3 µM (inactive)	> 100 µM (inactive)	41.2 µM (inactive)		50.4 µM (inactive)	> 100 µM (inactive)	> 100 µM (inactive)	> 100 µM (inactive)	> 100	49.1 µM (inactive)	> 100 µM (inactive)	17.9 µM (inactive)	53.3 µM (inactive)	> 100 µM (inactive)	82.4 µM (inactive)	> 100 µM (inactive)	75.7 µM (inactive)	> 100 µM (inactive)	30.8 µM (inactive)	> 100 µM (inactive)
CCOC(=O)C(Cc1ccccc1)(Cc1ccc(O)cn1)NC(=O)c1ccccc1 (stereo unspecified)	35.8 µM (inactive)	27.3 µM (inactive)	15.6 µM (inactive)	17.5 µM (inactive)	27.2 µM (inactive)	19.8 µM (inactive)	17.9 µM (inactive)	29.7 µM (inactive)	19.7	24.9 µM (inactive)	16.7 µM (inactive)	21.7 µM (inactive)	30.6 µM (inactive)	23.8 µM (inactive)	22.3 µM (inactive)	24.4 µM (inactive)	22.6 µM (inactive)	6.27 µM (inactive)	32.2 µM (inactive)	
C=C1c2cc3c(cc2CC12Cc1cc4c(cc1C2=O)CCC4)CCC3 (stereo unspecified)	> 100 µM (inactive)	> 100 µM (inactive)	> 100 µM (inactive)		> 100 µM (inactive)	> 100 µM (inactive)	> 100 µM (inactive)	> 100 µM (inactive)	> 100	> 100 µM (inactive)		> 100 µM (inactive)	> 100 µM (inactive)	> 100 µM (inactive)	> 100 µM (inactive)		> 100 µM (inactive)	> 100 µM (inactive)	> 100 µM (inactive)	
COc1ccc(Nc2nc3cc(C(F)(F)F)ccc3n3cccc23)cc1OC	17.7 µM (inactive)	18.6 µM (inactive)	16 µM (inactive)	10.3 µM (inactive)	14.1 µM (inactive)	4.7 µM (inactive)	14.3 µM (inactive)	9.04 µM (inactive)	11.4	8.15 µM (inactive)	15.5 µM (inactive)	19.8 µM (inactive)	27.9 µM (inactive)	10.8 µM (inactive)	16.6 µM (inactive)		25.5 µM (inactive)	12.6 µM (inactive)	22.3 µM (inactive)	
COc1cccc2c1C(=O)c1c(O)c3c(c(O)c1C2=O)CC(O)(C(O)CO)CC3OC1CC2C(OC3COCC(C#N)N32)C(C)O1 (stereo unspecified)	< 0.01 µM (active)	< 0.01 µM (active)	< 0.01 µM (active)	< 0.01 µM (active)	< 0.01 µM (active)	< 0.01 µM (active)	< 0.01 µM (active)	< 0.01 µM (active)	< 0.01	< 0.01 µM (active)	< 0.01 µM (active)	< 0.01 µM (active)	< 0.01 µM (active)	< 0.01 µM (active)	< 0.01 µM (active)	< 0.01 µM (active)	< 0.01 µM (active)	< 0.01 µM (active)	< 0.01 µM (active)	< 0.01 µM (active)
